Assay results published in US20260137706A1, “METHODS OF TREATING INFLAMMATORY DISEASES” (INTERLINE THERAPEUTICS, INC., priority 2023, published 2026).

How the values were obtained:
[1] = target: T1, GST-RIPK2 fusion protein (human RIPK2, amino acids 1-310) (Homo sapiens, UniProt O43353); assay: RIPK2 binding competition assay (TR-FRET, Tracer 199 displacement); conditions: 10 nM Tracer 199, 1 nM GST-RIPK2, read-out: RIPK2 IC50
T1 construct: made in house; host or cells: baculovirus infected Sf9 cells
Method in brief: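 GST-RIPK2 (human aa 1-310, Sf9-expressed; final 1 nM) with Tracer 199 (final 10 nM) and Tb-anti-GST (final 0.5 nM) in Tris pH 7.5 buffer, 45 min at 22 °C. TR-FRET 665/620 nm ratio after 337 nm excitation; normalized to no-inhibitor (0%) and no-protein (−100%), giving IC50.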

[2] = tested on: NF-κB pathway (SEAP) in THP1-Dual cells; assay: THP-1 Dual cell SEAP assay (L18-MDP stimulated); assay type: cell-based; conditions: Homo sapiens, THP1-Dual, read-out: NF-κB THP1 IC50 bin
Method in brief: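 THP1-Dual cells (~25,000/well) were preincubated 30 min with serially diluted compounds, then stimulated with 10 ng/mL L18-MDP (final) for 20-24 h at 37 °C. Supernatant SEAP was read with QUANTI-Blue at OD 620-655 nm after 2 h. IC50 came from non-linear fits of % inhibition versus DMSO/L18-MDP controls after media-blank subtraction.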

[3] = target: T2, binding of His-XIAP(BIR2)-avi fusion protein to GST-RIPK2 fusion protein (RIPK2/XIAP) (Homo sapiens, UniProt O43353); assay: RIPK2-XIAP binding competition PPI assay (TR-FRET); conditions: RIPK2/XIAP binding competition PPI assay; for Emax: Amax, read-out: PPI Amax bin; for IC50: read-out: PPI IC50 bin
T2 construct: made in house; host or cells: baculovirus infected Sf9 cells
Method in brief: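 Compounds (in DMSO, 100-fold stock) incubated 120 min at 23 °C with 1 nM GST-RIPK2 (aa 1-310) and 25 nM His-XIAP(BIR2 aa 152-231)-avi, plus anti-His-XL665 and anti-GST-Tb, in pH 7.5 Tris buffer. Read-out: 665/520 nm emission ratio. Normalized to no-inhibitor (0%) and 50 nM GSK583 (−100%); Amax binned A–D.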

T2 sequence (O43353 1-310 limits assumed): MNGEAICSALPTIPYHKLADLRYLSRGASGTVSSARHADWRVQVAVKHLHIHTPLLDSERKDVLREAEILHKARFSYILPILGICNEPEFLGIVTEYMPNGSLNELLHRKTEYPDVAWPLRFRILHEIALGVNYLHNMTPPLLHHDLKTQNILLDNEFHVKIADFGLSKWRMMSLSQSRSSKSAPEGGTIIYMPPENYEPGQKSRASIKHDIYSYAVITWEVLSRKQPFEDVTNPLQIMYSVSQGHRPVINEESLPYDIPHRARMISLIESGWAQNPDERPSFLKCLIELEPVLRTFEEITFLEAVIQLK
T1 sequence (O43353 1-310): as the sequence (O43353 1-310 limits assumed) above

SMILES	IC50 [1]	IC50 [2]	Emax [3]	IC50 [3]
[2H]C([2H])([2H])Oc1c(F)cc(-c2cnc3cc(OC)c(S(=O)(=O)C(C)(C)C)cn23)cc1NS(=O)(=O)CC1COC1 [Example 133, N-(5-(6-(tert-butylsulfonyl)-7-methoxyimidazo[1,2-a]pyridin-3-yl)-3-fluoro-2-(methoxy-d3)phenyl)-1-(oxetan-3-yl)methanesulfonamide]	< 0.001 µM	< 0.05 µM	55 to 80%	< 0.001 µM
COc1cc2ncc(-c3cc(F)c(OC)c(NS(=O)(=O)c4ccn(C)n4)c3)n2cc1S(=O)(=O)C(C)(C)C [Example 134, N-(5-(6-(tert-butylsulfonyl)-7-methoxyimidazo[1,2-a]pyridin-3-yl)-3-fluoro-2-methoxyphenyl)-1-methyl-1H-pyrazole-3-sulfonamide]	0.001 to 0.0025 µM	< 0.05 µM	> 80%	< 0.001 µM
COc1cc2ncc(-c3cc(F)c(OC)c(NS(=O)(=O)c4cnn(C)c4)c3)n2cc1S(=O)(=O)C(C)(C)C [Example 135, N-(5-(6-(tert-butylsulfonyl)-7-methoxyimidazo[1,2-a]pyridin-3-yl)-3-fluoro-2-methoxyphenyl)-1-methyl-1H-pyrazole-4-sulfonamide]	< 0.001 µM	< 0.05 µM	> 80%	< 0.001 µM
COc1cc2ncc(-c3cc(F)c(OC)c(NS(=O)(=O)c4cccnc4)c3)n2cc1S(=O)(=O)C(C)(C)C [Example 141, N-(5-(6-(tert-butylsulfonyl)-7-methoxyimidazo[1,2-a]pyridin-3-yl)-3-fluoro-2-methoxyphenyl)pyridine-3-sulfonamide]	< 0.001 µM	< 0.05 µM	> 80%	< 0.001 µM
COc1cc2ncc(-c3cc(F)c(OC)c(NS(=O)(=O)C4COC4)c3)n2cc1S(=O)(=O)C(C)(C)C [Example 142, N-(5-(6-(tert-butylsulfonyl)-7-methoxyimidazo[1,2-a]pyridin-3-yl)-3-fluoro-2-methoxyphenyl)oxetane-3-sulfonamide]	0.001 to 0.0025 µM	0.25 to 1 µM	> 80%	0.001 to 0.0025 µM
COc1cc2ncc(-c3cc(F)c(OC)c(NS(=O)(=O)CC(F)(F)F)c3)n2cc1S(=O)(=O)C(C)(C)C [Example 143, N-(5-(6-(tert-butylsulfonyl)-7-methoxyimidazo[1,2-a]pyridin-3-yl)-3-fluoro-2-methoxyphenyl)-2,2,2-trifluoroethane-1-sulfonamide]	0.001 to 0.0025 µM	0.25 to 1 µM	55 to 80%	0.001 to 0.0025 µM
C=CS(=O)(=O)Nc1cc(-c2cnc3cc(OC)c(S(=O)(=O)C(C)(C)C)cn23)cc(OC)c1OC [Example 144, N-(5-(6-(tert-butylsulfonyl)-7-methoxyimidazo[1,2-a]pyridin-3-yl)-2,3-dimethoxyphenyl)ethenesulfonamide]	0.001 to 0.0025 µM	< 0.05 µM	> 80%	< 0.001 µM
COc1cc2ncc(-c3cc(F)c(OC)c(NS(=O)(=O)C4CCC4)c3)n2cc1S(=O)(=O)C(C)(C)C [Example 145, N-(5-(6-(tert-butylsulfonyl)-7-methoxyimidazo[1,2-a]pyridin-3-yl)-3-fluoro-2-methoxyphenyl)cyclobutanesulfonamide]	< 0.001 µM	< 0.05 µM	> 80%	< 0.001 µM
COc1cc2ncc(-c3cccc(NS(=O)(=O)C4CC4)c3)n2cc1S(=O)(=O)C(C)(C)C [Example 146, N-(3-(6-(tert-butylsulfonyl)-7-methoxyimidazo[1,2-a]pyridin-3-yl)phenyl)cyclopropanesulfonamide]	0.0025 to 0.02 µM	> 1 µM	> 80%	0.0025 to 0.02 µM
COc1cc2ncc(-c3cccc(NS(=O)(=O)C4CCOCC4)c3)n2cc1S(=O)(=O)C(C)(C)C [Example 147, N-(3-(6-(tert-butylsulfonyl)-7-methoxyimidazo[1,2-a]pyridin-3-yl)phenyl)tetrahydro-2H-pyran-4-sulfonamide]	0.0025 to 0.02 µM	0.25 to 1 µM	> 80%	0.0025 to 0.02 µM
COc1cc2ncc(-c3cccc(NS(=O)(=O)C4CCOC4)c3)n2cc1S(=O)(=O)C(C)(C)C (stereo not shown) [Example 148, N-(3-(6-(tert-butylsulfonyl)-7-methoxyimidazo[1,2-a]pyridin-3-yl)phenyl)tetrahydrofuran-3-sulfonamide]	0.0025 to 0.02 µM	> 1 µM	> 80%	0.0025 to 0.02 µM
COc1cc2ncc(-c3cccc(NS(=O)(=O)C4(C)CC4)c3)n2cc1S(=O)(=O)C(C)(C)C [Example 149, N-(3-(6-(tert-butylsulfonyl)-7-methoxyimidazo[1,2-a]pyridin-3-yl)phenyl)-1-methylcyclopropane-1-sulfonamide]	0.0025 to 0.02 µM	> 1 µM	> 80%	0.0025 to 0.02 µM
COc1cc2ncc(-c3cccc(NS(=O)(=O)C4COC4)c3)n2cc1S(=O)(=O)C(C)(C)C [Example 150, N-(3-(6-(tert-butylsulfonyl)-7-methoxyimidazo[1,2-a]pyridin-3-yl)phenyl)oxetane-3-sulfonamide]	0.0025 to 0.02 µM	> 1 µM	> 80%	0.0025 to 0.02 µM
COc1cc2ncc(-c3cccc(NS(=O)(=O)CC4CC4)c3)n2cc1S(=O)(=O)C(C)(C)C [Example 151, N-(3-(6-(tert-butylsulfonyl)-7-methoxyimidazo[1,2-a]pyridin-3-yl)phenyl)-1-cyclopropylmethanesulfonamide]	0.001 to 0.0025 µM	0.25 to 1 µM	> 80%	0.001 to 0.0025 µM
COc1cc2ncc(-c3cccc(NS(=O)(=O)C4CCC4)c3)n2cc1S(=O)(=O)C(C)(C)C [Example 152, N-(3-(6-(tert-butylsulfonyl)-7-methoxyimidazo[1,2-a]pyridin-3-yl)phenyl)cyclobutanesulfonamide]	0.0025 to 0.02 µM	0.25 to 1 µM	> 80%	0.0025 to 0.02 µM
COc1cc2ncc(-c3cccc(NS(=O)(=O)C4CCN(C(=O)OC(C)(C)C)C4)c3)n2cc1S(=O)(=O)C(C)(C)C (stereo not shown) [Example 153, tert-butyl 3-(N-(3-(6-(tert-butylsulfonyl)-7-methoxyimidazo[1,2-a]pyridin-3-yl)phenyl)sulfamoyl)pyrrolidine-1-carboxylate]	0.0025 to 0.02 µM	> 1 µM	> 80%	> 0.02 µM
COc1cc2ncc(-c3cccc(NS(=O)(=O)C4CCNC4)c3)n2cc1S(=O)(=O)C(C)(C)C (stereo not shown) [Example 154, N-(3-(6-(tert-butylsulfonyl)-7-methoxyimidazo[1,2-a]pyridin-3-yl)phenyl)pyrrolidine-3-sulfonamide]	0.0025 to 0.02 µM	> 1 µM	> 80%	0.0025 to 0.02 µM
COc1cc2ncc(-c3cccc(NS(=O)(=O)C4CN(C(=O)OC(C)(C)C)C4)c3)n2cc1S(=O)(=O)C(C)(C)C [Example 155, tert-butyl 3-(N-(3-(6-(tert-butylsulfonyl)-7-methoxyimidazo[1,2-a]pyridin-3-yl)phenyl)sulfamoyl)azetidine-1-carboxylate]	> 0.02 µM	> 1 µM	> 80%	> 0.02 µM
COc1cc2ncc(-c3cccc(NS(=O)(=O)C4CNC4)c3)n2cc1S(=O)(=O)C(C)(C)C [Example 156, N-(3-(6-(tert-butylsulfonyl)-7-methoxyimidazo[1,2-a]pyridin-3-yl)phenyl)azetidine-3-sulfonamide]	> 0.02 µM	> 1 µM	> 80%	> 0.02 µM
COc1cc2ncc(-c3cccc(NS(=O)(=O)C4CCN(C(=O)OC(C)(C)C)CC4)c3)n2cc1S(=O)(=O)C(C)(C)C [Example 157, tert-butyl 4-(N-(3-(6-(tert-butylsulfonyl)-7-methoxyimidazo[1,2-a]pyridin-3-yl)phenyl)sulfamoyl)piperidine-1-carboxylate]	> 0.02 µM	> 1 µM	55 to 80%	> 0.02 µM
COc1cc2ncc(-c3cccc(NS(=O)(=O)C4CCNCC4)c3)n2cc1S(=O)(=O)C(C)(C)C [Example 158, N-(3-(6-(tert-butylsulfonyl)-7-methoxyimidazo[1,2-a]pyridin-3-yl)phenyl)piperidine-4-sulfonamide]	> 0.02 µM	> 1 µM	> 80%	> 0.02 µM
COc1cc2ncc(-c3cc(F)c(OC)c(NS(=O)(=O)CC4CC4)c3)n2cc1S(=O)(=O)C(C)(C)C [Example 159, N-(5-(6-(tert-butylsulfonyl)-7-methoxyimidazo[1,2-a]pyridin-3-yl)-3-fluoro-2-methoxyphenyl)-1-cyclopropylmethanesulfonamide]	< 0.001 µM	< 0.05 µM	> 80%	< 0.001 µM
